From ChEMBL document CHEMBL1155451, “Complexes of bacterial nicotinate mononucleotide adenylyltransferase with inhibitors: implication for structure-based drug design and improvement” (J Med Chem, 2010) come the findings set out here.

One may read the IC50 as the concentration that inhibits the measured activity by half. Low readings indicate greater potency, high ones weaker potency.

Test [1] addresses T1, Probable nicotinate-nucleotide adenylyltransferase (Bacillus anthracis, UniProt C3L5T6).
T1 sequence (C3L5T6 whole entry): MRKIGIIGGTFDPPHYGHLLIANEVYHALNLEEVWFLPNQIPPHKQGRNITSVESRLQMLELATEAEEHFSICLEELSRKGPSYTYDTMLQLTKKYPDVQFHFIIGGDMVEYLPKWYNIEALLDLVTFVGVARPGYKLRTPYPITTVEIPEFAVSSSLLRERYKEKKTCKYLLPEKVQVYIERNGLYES

The target of test [2] is T2, Probable nicotinate-nucleotide adenylyltransferase (Bacillus anthracis) (UniProt C3L5T6).
T2 sequence (whole entry): T1 sequence (C3L5T6 whole entry)
The experiment in a line: Inhibition of Bacillus anthracis nicotinate-nucleotide adenosyltransferase up to 100 uM preincubated for 5 mins before addition of substrate by malachite green reagent method.

Activity calls are given as the source filed them. No cut-off for these calls is given here.

For `CC(/C=N/NC(=O)CCC(=O)Nc1ccc(Br)cc1)c1ccc2ccccc2c1` (stereo not drawn), the 50% inhibitory concentration (IC50) in test [1] was > 200 µM.

Turning to `O=C(O)CN(/N=C/c1cccc2ccccc12)C(=O)CCC(=O)Nc1ccccc1Cl`, in test [1], the half-inhibitory concentration (IC50) was > 200 µM. With `O=C(O)CN(/N=C/c1ccc(/C=N/N(CC(=O)O)C(=O)CCC(=O)Nc2ccccc2Cl)cc1)C(=O)CCC(=O)Nc1ccccc1Cl`, the inhibition result in test [2] is “inactive”.
